This test relates to HT-29 cells. Description: LPS-induced inflammation cell model of inflammatory bowel disease (HT-29), qPCR and ELISA. Format: cell-based. Conditions: HT-29, 1 μg/mL LPS, vs LPS alone. The method, then: In order to confirm the effect of HKFY-34 on anti-inflammatory action, which is one of the gastrointestinal tract protective function (barrier function) by GPR39, the anti-inflammatory activity of HKFY-34 was evaluated in a cell model of inflammatory bowel disease (IBD).
Specifically, the HT-29 cells were treated with 1 μg/mL LPS to induce inflammation and prepare an inflammatory bowel disease model, and were treated with HKFY-34 at different concentrations. Thereafter, the expression levels of mRNA (FIG. 81) and protein (FIG. 82) of inflammation factors for ulcerative colitis were measured through qPCR and ELISA.
(In general: Quantitative PCR measures a nucleic acid by following its amplification.)

Here are results for one compound from US20250340591A1, “COMPOSITION FOR PREVENTING OR TREATING INFLAMMATORY BOWEL DISEASE CONTAINING NOVEL COMPOUND” (ANYGEN CO., LTD., priority 2021, published 2025).

`CCCCCCCC(=O)NCCCC[C@H](NC(=O)[C@@H](N)Cc1cn(C(c2ccccc2)c2ccccc2)cn1)C(=O)N[C@H](Cc1ccc(C)cc1)C(=O)N[C@@H](Cc1ccc(O)cc1)C(=O)O` [HKFY-34, ((R)-2-((S)-2-((S)-2-amino-3-(1-benzhydryl-1H-imidazol-4-yl)propanamido)-6-octanamidohexanamido)-3-(p-tolyl)propanoyl)-L-tyrosine]: where the note is “ELISA, FIG. 82”, the “secretion level of IL-1β” value is reported as “significantly decreased by HKFY-34 treatment in a dose-dependent manner”, the “secretion level of IL-6” value is recorded as “significantly decreased by HKFY-34 treatment in a dose-dependent manner”, the “secretion level of IL-8” value is recorded as “significantly decreased by HKFY-34 treatment in a dose-dependent manner” and the “secretion level of TNF-α” value is reported as “significantly decreased by HKFY-34 treatment in a dose-dependent manner”. For the setting “qPCR, FIG. 81”, the “mRNA expression level of IL-1β” value is “significantly decreased by HKFY-34 treatment in a dose-dependent manner”, the “mRNA expression level of IL-6” value was “significantly decreased by HKFY-34 treatment in a dose-dependent manner”, the “mRNA expression level of IL-8” value is on record as “significantly decreased by HKFY-34 treatment in a dose-dependent manner” and the “mRNA expression level of TNF-α” value was “significantly decreased by HKFY-34 treatment in a dose-dependent manner”.
